Experimental data reported in patent US9896422B2, “Tetracycline derivatives with reduced antibiotic activity and neuroprotective benefits” (Neumedics, priority 2008, dated 2018).
Where two headings read alike, the source gives them in different places.

Tests used:
E. Coli = assay: Antimicrobial susceptibility (zone of inhibition) test, Kirby-Bauer disc diffusion; type: cell-based; settings: samples 30 ug/ml, Muller-Hinton agar, about 24 hrs
Description: (§1) Anti-microbial susceptibility (zone of inhibition) tests were conducted by an outside analytical laboratory. The Kirby-Bauer or disc diffusion method of assessing antimicrobial activity is an established literature procedure and was used with some modifications to the standard protocol: 1) S. Aureus and E. Coli were grown in Muller-Hinton broth and incubated at 30-35° C. for 18-24 hrs, 2) samples were diluted in sterile water for injections or pure water to achieve a concentration of 30 ug/ml and were plated in triplicate, and 3) the test plates were prepared using Muller-Hinton agar and incubated at 30-35° C. for approximately 24 hrs.
(§2) The diameters of the zone of inhibition (if present) around the test sample were measured using calibrated calipers. […] 3a has some activity (average zone of 24.45 mm) against S. Aureus.

S. Aureus = assay: as above; type: cell-based; settings: for The diameter of the zone including sample: S. Aureus, samples 30 ug/ml, Muller-Hinton agar, about 24 hrs, average of triplicate; for antimicrobial activity in this assay: disc diffusion, S. Aureus and E. Coli, 30 ug/ml
Description: as §1, §2

[1] = Stability testing in solution; type: physicochemical; settings: de-ionized water, saline and PBS at pH of about 3 to 7.5
Description: Compounds of the present invention will be stable in solution and/or in powder form. To test for stability in different solutions (e.g., de-ionized water, de-ionized water adjusted with K2HPO4 to pH 7.4, de-ionized water adjusted with NaOH to pH 9, saline solution or PBS). The compounds are tested for degradation at different times at different temperatures. By way of example, compound 3b was stable in de-ionized water saline and PBS at pH of about 3 to 7.5.

[2] = Intravenous blood brain barrier (BBB) penetration assay in mice; type: in vivo, CD-1 mice; settings: 1 mg/kg tail-vein
Description: Intravenous blood brain barrier (BBB) penetration of Compounds 38 and 3b in mice was assessed by an outside analytical laboratory using the standard protocol. CD-1 mice were tail-vein injected with 38 or 3b (1 mg/kg, n=3), and the plasma and brain samples were collected at 30, 60 and 180 min time intervals. The concentration of 38 and 3b in brain (ng/g tissue), plasma and the ratio of the brain concentration at each time point were determined by acetonitrile precipitation of the test compounds from the samples followed by HPLC-MS?MS analysis.
After treatment of the animals with the test compounds, plasma samples were collected by cardiac puncture. Blood aliquots (300-400 μL) were collected in lithium heparincoated tubes, mixed gently, then kept on ice and centrifuged at 2,500×g for 15 minutes at 4° C. within 1 hour of collection. Plasma was then harvested and kept frozen at −20° C. until further processing.
Immediately after blood sampling, mice were decapitated and the whole brains were quickly removed, rinsed with cold saline (0.9% NaCl, g/mL), surface vasculature ruptured, blotted with dry gauze weighed and kept on ice until further processing within 1 hour of collection. Each brain was homogenized in 1.5 mL cold phosphate-buffered saline, pH 7.4, for 10 seconds on ice using a POWERGEN 125 homogenizer. Each sample was then stored at −20° C. until further processing.
Brain homogenates collected as above were processed by adding an equal volume of chilled 26% (g/mL) neutral Dextran (average MW 65,000-85,000, from Sigma, catalog number D-1390) solution to obtain a final Dextran concentration of 13%. The homogenate was centrifuged at 5400×g for 15 minutes at 4° C. Supernatents were subsequently processed using acetonitrile precipitation and analyzed by HPLC-MS. A brain calibration curve was generated by spiking drug-free brain homogenate from the control animals with test compound at specified concentration levels. The spiked brain homogenate samples were processed together with the unknowns using the same procedure. Processed brain samples were stored frozen (−20° C.) until LC-MS/MS analysis.
Plasma samples collected as above were processed and analyzed as for the brain homogenate supernatents described above.
After processing, all samples were analyzed using HPLC-MS/MS analysis. HPLC analysis employed a Synergi Max-RP 80 HPLC column (2×50 mm, 4 μm, Phenomenex Part No. 00B-4337-B0), using a first mobile phase of 13.3 mM ammonium formate/6.7 mM formic acid in water, and a second mobile phase of 6 mM ammonium formate/3 mM formic acid in water/CH3CN (1/9, v/v). MS/MS analysis was done on a TSQ QUANTUM with selected reaction monitoring, positive ion mode, using a capillary temperature of 325° C. and a capillary voltage of 4.0 kV. Peak areas were recorded, and the concentrations of the test compound in the unknown brain samples were determined using the respective calibration curves.

| SMILES | The diameter of the zone including sample (E. Coli) | The diameter of the zone including sample (S. Aureus) | antimicrobial activity in this assay (S. Aureus) | stability in solution [1] | blood brain barrier penetration in vivo [2] | concentration in the brain ([2]; 180 min, n=3) | concentration at 30 min ([2]; CD-1, mouse, brain, intravenous, 30 min, n=3, read-out: concentration in the brain) [ng/g] | concentration at 60 min ([2]; CD-1, mouse, brain, intravenous, n=3, read-out: concentration in the brain) [ng/g] | Kp at 0.5 h ([2]; CD-1, mouse, brain/plasma, intravenous, 30 min, read-out: Calculated ratio of brain to plasma concentration) | concentration at 30 min ([2]; CD-1, mouse, plasma, intravenous, 30 min, n=3, read-out: Plasma concentration) [ng/mL] | concentration at 60 min ([2]; CD-1, mouse, plasma, intravenous, n=3, read-out: Plasma concentration) [ng/mL] | concentration at 180 min ([2]; CD-1, mouse, plasma, intravenous, 180 min, n=3) [ng/mL] |
| --- | --- | --- | --- | --- | --- | --- | --- | --- | --- | --- | --- | --- |
| CN(C)c1cc2ncoc2c2c1C[C@H]1C[C@H]3[C@H](N(C)C)C(O)=C(C(N)=O)C(=O)[C@@]3(O)C(O)=C1C2=O [Compound 3a, (6aR,7aS,8S,11aS)-5,8-bis(dimethylamino)-9,11a,12trihydroxy-11,13-dioxo-6,6a,7,7a,8,11,11a,13-octahydrotetraceno[2,1-d]oxazole-10carboxamide] | no zone |  |  |  |  |  |  |  |  |  |  |  |
| CN(C)c1cc2c(c3c1C[C@H]1C[C@H]4[C@H](N(C)C)C(O)=C(C(N)=O)C(=O)[C@@]4(O)C(O)=C1C3=O)OCC(=O)N2 [Compound 38, (6aR,7aS,8S,11aS)-5,8-bis(dimethylamino)-9,11a,12-trihydroxy-2,11,13trioxo-2,3,6,6a,7,7a,8,11,11a,13-decahydrotetraceno[2,1-d]morpholine-10-carboxamide] | no zone | no zone | no antimicrobial activity |  |  |  |  |  |  |  |  |  |
| CN(C)c1cc2[nH]c(=O)oc2c2c1C[C@H]1C[C@H]3[C@H](N(C)C)C(O)=C(C(N)=O)C(=O)[C@@]3(O)C(O)=C1C2=O [Compound 3b, (6aR,7aS,8S,11aS)-5,8bis(dimethylamino)-9,11a,12-trihydroxy-2,11,13-trioxo-2,3,6,6a,7,7a,8,11,11a,13decahydrotetraceno[2,1-d]oxazole-10-carboxamide] | no zone | no zone | no antimicrobial activity | stable | acceptable | below the limit of quantitation | 6.7 | 5.8 | 0.07 | 97 | 27 | 4 |
